The results in this text go back to US20260002121A1, “IMPROVED METHODS OF PREPARING DIFFERENT MESODERM CELL TYPES” (Children's Hospital Medical Center, priority 2021, published 2026).

The test system of test [1] is hPSC-derived lateral plate mesoderm / splanchnic mesoderm cultures. Briefly: RT-PCR of marker genes in hPSC-derived lateral plate/splanchnic mesoderm cultures (Example 9). The settings on record: primitive SM treated d4-d7. Format: cell-based, human. The method, then:
Differentiation of hPSCs into lateral plate mesoderm was induced using previously described methods with modifications. In brief, partially confluent hPSCs were dissociated into very fine clumps in Accutase (Invitrogen) and passaged 1:18 onto new Geltrex-coated 24-well plates for immunocytochemistry and 12-well plates for RNA preparation in mTeSR1 with 1 μM thiazovivin (Tocris) ([…]). Next day, a brief wash with DMEM/F12 was followed with Day 0 medium (30 ng/mL Activin A (Cell Guidance Systems), 40 ng/mL. BMP4 (R&D Systems), 6 μM CHIR99021 (Tocris), 20 ng/mL FGF2 (Thermo Fisher), 100 nM PIK90 (EMD Millipore)) for 24 hours. A basal media composed of Advanced DMEM/F12, N2, B27, 15 mM HEPES, 2 mM […], penicillin-streptomycin was used for this Day 0 medium and all subsequent differentiations. On Day 1, a brief wash with DMEM/F12 was followed with Day 1 medium (1 μM A83-01 (Tocris), 30 ng/mL BMP4, 1 μM C59 (Cellagen Technology)) for 24 hours. For cardiac mesoderm generation, cells were cultured in 1 μM A83-01, 30 ng/mL BMP4, 1 μM C59, 20 ng/mL FGF2 from Day 2 to Day 4 (medium changed every day). From Day 4, cells were cultured in 200 μg/mL 2-phospho-ascorbic acid (Sigma), 1 μM XAV939 (Sigma), 30 ng/mL BMP4 for 3 days. […] Significance was determined by one-way ANOVA, followed by Tukey's test.

The test system of another test is hPSC-derived mesoderm. Nature of the test: Quantitative RT-PCR gene expression of differentiating mesoderm (Example 11). It counts as cell-based, human. The settings on record: longer and higher levels of Wnt activation (CHIR timing). As to the method: Total RNA was prepared from differentiating human ES cells by using Nucleospin kit according to manufacturer's protocol. Reverse transcription PCR was performed by Superscript VILO cDNA synthesis kit. QuantStudio 5 and 6 were used for qPCR analyses. Statistics were performed with PRISM8 (GraphPad Software). Significance was determined by one-way ANOVA, followed by Tukey's test.
After SpM differentiation, the cells can be observed with an inverted microscope. The cells should be at 100% confluency (FIG. 9A). The efficiency of SpM induction can be checked by immunostaining for FOXF1 and/or ISL1, or expression of relative gene profiles as provided in Table 1.
The efficiency of organ-specific mesoderm differentiation can be checked by immunostaining for WT1, PITX1, FOXF1, NKX6.1, and/or TBX5, or expression of relative gene profiles as provided in Table 1.

As to `c1ccc2c(Oc3nc(Nc4ccc(N5CCOCC5)cc4)c4ncn(C5CCCCC5)c4n3)cccc2c1` [HH-agonist, purmorphamine], the “organ-specific SM-like lineage identity (gene expression)” value in test [1] was “promoted gut tube identity and efficiently blocked the hepatic fate”.

With `Cc1c[nH]c(-c2cnc(NCCNc3ccc(C#N)cn3)nc2-c2ccc(Cl)cc2Cl)n1` [CHIR, CHIR99021], in the test with hPSC-derived mesoderm, the NKX6-1 expression entry is reported as “suppressed” and the WNT2 expression entry was “promoted”.
